# Reference: EP2385818B1, “DIOLS AS ANTIPERSPIRANT AGENTS” (Beiersdorf Aktiengesellschaft, priority 2009, dated 2010)
# Test system: schweißabgebenden Schweißdrüsen im Testareal
# Assay: Sweat reduction on the forearm of volunteers, sweating induced at 75 °C, silicone imprint count of active sweat glands versus untreated area (following Keskin et al.)
# Assay type: in vivo, Probanden
# Conditions: for antitranspirant bzw. schweißhemmende Wirkung (Restschweißmenge im Vergleich zum unbehandelten Areal): forearm, after product application, result in words only; for AT-Wirkung, onset: measurable after the first application, no build-up by repeated application
# Source text: Die überraschende Antitranspirantwirksamkeit wurde in Studien zum AT-Wirkmechanismus der aromatischen Diole in wässrigen Systemen, unterschiedlichen Ölen und O/W-Emulsion untersucht (siehe Abbildung 1). In den Abbildungen ist die Restschweißmenge im Vergleich zum unbehandelten Areal nach Produktapplikation dargestellt. 100% Restschweißmenge entsprechen 0% Schweißreduktion. Die Schweißreduktion wurde in Anlehnung an M. Keskin et al. J. Invest. Dermatol. 1998; 110:591 gemessen. Bei den Messungen werden die Testsubstanzen auf dem Unterarm der Probanden angewendet. Die Probanden werden bei 75 °C zum Schwitzen angeregt; nach Beginn der Schweißproduktion wird mittels Silikonabdrucktechnik die Anzahl der schweißabgebenden Schweißdrüsen im Testareal ermittelt und gegen ein unbehandeltes Vergleichsareal abgeglichen.
Structure (SMILES),antitranspirant bzw. schweißhemmende Wirkung (Restschweißmenge im Vergleich zum unbehandelten Areal),"AT-Wirkung, onset","AT-Leistung (preparation with up to 50 % Gew. in water, compared with preparation with 10 Gew.% Aluminiumchlorohydrat (Abbildung 1))"
"CC(O)CCC(C)O (centres unmarked) [2,5 Hexandiol, 2,5-Hexandiol]",antitranspirant bzw. schweißhemmende Wirkung,unmittelbare AT-Wirkung (Sofort-Effekt),–
CC(O)C(O)c1ccccc1 (centres unmarked),schweißhemmende Wirkung,–,–
"OCCCO [1,3-Propylenglykol]",antitranspirant bzw. schweißhemmende Wirkung,unmittelbare AT-Wirkung (Sofort-Effekt),gute AT-Leistung
"CC(O)CCO (centres unmarked) [1,3-Butylenglykol]",antitranspirant bzw. schweißhemmende Wirkung,unmittelbare AT-Wirkung (Sofort-Effekt),–
"CC(O)CC(C)O (centres unmarked) [2,4-Pentylenglykol]",antitranspirant bzw. schweißhemmende Wirkung,unmittelbare AT-Wirkung (Sofort-Effekt),–
"OCCC(O)c1ccccc1 (centres unmarked) [Phenyl-1,3-Propylenglykol]",schweißhemmende Wirkung,–,–
